Patent US20240392251A1, “CULTURE MEDIUM AND CULTURE METHOD FOR LUNG CANCER EPITHELIAL CELLS, AND APPLICATION THEREOF” (PRECEDO PHARMACEUTICALS CO., LTD, priority 2021, published 2024)
Ends that are not written are not given here.

Key:
Type in all cases: cell-based, human
[1] = system: lung cancer epithelial cells (Sample No. B26); test: Effects of different concentrations of the additive factors on proliferation of primary lung cancer cells; settings: added to No. 8 medium lacking the factor; cell number ratio to Blank Control; FIGS. 3A-3H
Procedure: Extracellular matrix gel (Matrigel®) was diluted with serum-free DMEM/F12 medium at a ratio of 1:100 to prepare an extracellular matrix diluent. The extracellular matrix diluent was added to a 48-well culture plate with 200 μl/well to completely cover the bottom of the wells of the culture plate. The culture plate was let stand for 1 hour in a 37° C. incubator. After 1 hour, the extracellular matrix diluent was removed to provide a Matrigel-coated plate.
No. 8 culture medium for primary lung cancer epithelial cells was prepared.
Lung cancer epithelial cells derived from cancer tissues were isolated from the cancer tissue of a lung cancer patient (Sample No. B26) using the same method as in Example 1. Next, lung cancer epithelial cells derived from cancer tissues were counted with a flow imaging counter (JIMBIO FIL, Jiangsu Jimbio Technology Co., Ltd.) to get the total number of cells. Then, the cells were inoculated at a density of 4×10^4 cells/cm^2 in a 48-well plate which was coated with Matrigel®. […] of the prepared No. 8 culture medium for primary lung cancer epithelial cells was added to the 48-well plate, which was then placed in a 37° C., 5% CO2 incubator (purchased from Thermo Fisher) for culture. When the cells in the culture plate grew to cover about 80% of the bottom area, the supernatant of medium in the 48-well plate was discarded and 500 μl of 0.05% trypsin (purchased from Gibco) was added for cell digestion, which was then incubated at 37° C. for 10 minutes, until the cells were completely digested as observed under a microscope (EVOS M500, Invitrogen); then the digestion was terminated by using 1 ml of DMEM/F12 culture solution containing 5% (v/v) fetal bovine serum (purchased from ExCell Bio), 100 U/ml penicillin (purchased from Corning), and […] streptomycin (purchased from Corning); the resultant was collected into a 15 ml centrifuge tube and centrifuged at 1500 rpm for 4 minutes, and then the supernatant was discarded. The centrifuged cell pellet was resuspended in the basic medium BM and the cells were counted with a flow imaging counter (JIMBIO FIL, Jiangsu Jimbio Technology Co., Ltd.) to get the total number of cells. The obtained cells were used in the following cultivation experiments.
Next, the following 8 formulations of culture medium were prepared for experiments: • Formulation 1: No. 8 culture medium composition without B27 additive; • Formulation 2: No. 8 culture medium composition without fibroblast growth factor; • Formulation 3: No. 8 culture medium composition without transferrin; • Formulation 4: No. 8 culture medium composition without epidermal growth factor; • Formulation 5: No. 8 culture medium composition without Y27632; • Formulation 6: No. 8 culture medium composition without Compound 1; • Formulation 7: No. 8 culture medium composition without A83-01; • Formulation 8: No. 8 culture medium composition without gastrin.
The digested cell suspension was diluted with the above Formulations 1-8 respectively, and then inoculated into a 48-well plate at a volume of 250 μl with 10,000 cells per well.
When using the medium of Formulation 1, to a 48-well plate inoculated with primary cells was added the prepared B27 additive, with 250 μl per well, the final concentrations of B27 additive were 1:800, 1:400, 1:200, 1:100, 1:50, 1:25, respectively; a well of Blank Control (BC) was set using the medium of Formulation 1.
When using the medium of Formulation 2, to a 48-well plate inoculated with primary cells was added the prepared fibroblast growth factor, with 250 μl per well, the final concentrations of fibroblast growth factor were 80 ng/ml, 40 ng/ml, 20 ng/ml, 10 ng/ml, 5 ng/ml, 2.5 ng/ml, respectively; a well of Blank Control (BC) was set using the medium of Formulation 2. […]

[2] = system: lung cancer cells (No. B18); test: Effects of different factors added to basic medium BM on proliferation of primary lung cancer cells; settings: factor added to BM at the concentrations of Table 3; 12 days of culture; FIGS. 1A-1D
Procedure: Extracellular matrix gel (Matrigel®) (manufactured by Corning) was diluted with serum-free DMEM/F12 medium at a ratio of 1:100 to prepare an extracellular matrix diluent. The extracellular matrix diluent was added to a 48-well culture plate with 500 μl/well to completely cover the bottom of the wells of the culture plate. The culture plate was let stand for 1 hour in a 37° C. incubator. After 1 hour, the extracellular matrix diluent was removed to provide a Matrigel-coated plate.
Preparation of basic medium (abbreviated as BM): BM was prepared by adding 0.2 vol. % of Primocin (purchased from Invivogen, with a concentration of 50 mg/ml) to the commercial DMEM/F-12 medium to provide a final concentration of 100 μg/ml.
Next, different kinds and concentrations of additive factors (Table 3) were added to the basic medium (BM), so as to prepare culture mediums for lung cancer epithelial cells containing different additive components.
The culture mediums with different components were added at a volume of 500 μl/well to 48-well plates which were coated with extracellular matrix gel (Matrigel). Lung cancer cells (No. B18) isolated from lung cancer tissues according to the same method as described in Example 1 were inoculated at a cell density of 2×10^4 cells/cm^2 in the above-mentioned 48-well culture plates which were coated with Matrigel. After surface disinfection, the plates were placed in a 37° C., 5% CO2 incubator (purchased from Thermo Fisher), and the same number of freshly isolated lung cancer tumor cells (No. B18) were cultured under different medium formulations. The culture mediums were replaced every 4 days after the start of culture. After 12 days of culture, cell counts were performed. The basic medium (BM) without addition of any additive factor was used as a control. The ordinate in the figures represents the ratio of the number of cells obtained after culture in different mediums to the number of cells obtained after culture in basic medium BM.

[3] = system: Hippo pathway related proteins YAP and TAZ in the nucleus; test: Immunoblotting of Hippo pathway related proteins YAP and TAZ in the nucleus; settings: B16 cells, FLM with Compound 1 versus FLM without Compound 1, 12 days; FIG. 10
Procedure: Freshly isolated primary lung cancer epithelial cell sample (No. B16) was obtained according to the steps described in Example 1. Then, the primary epithelial cells were inoculated onto a 6-well plate coated with Matrigel™. 3 mL of the culture medium FLM and 3 mL of the culture medium FLM without Compound 1 were respectively added to the wells inoculated with the aforementioned epithelial cells. The plate was placed in a 37° C., 5% CO2 incubator (purchased from Thermo Fisher) for culture. The culture mediums were changed every 4 days during the culture process. After 12 days of cultivation, cells of each group were collected and the […] of Compound 1 on Hippo pathway related proteins YAP and TAZ in the nucleus was detected using conventional immunoblotting method. Yes associated protein (YAP) and its homologous transcriptional co-activator PDZ-binding motif (TAZ) are key effectors in the Hippo pathway that control cell growth and organ size, and their dysregulation may lead to tumor development or hypertrophy. After activation, YAP/TAZ translocate to the nucleus and bind to TEAD transcription factors, promoting cell proliferation or regulated transcription process.

## fibroblast growth factor
[1]
  amount in the culture medium, most preferably: 10 ng/mL
[2]
  effect on cell proliferation (ratio of number of cells to that in basic medium BM): certain promoting effects on cell proliferation in specific concentration ranges

## C[C@@H](N)[C@H]1CC[C@H](C(=O)Nc2ccncc2)CC1 [Compound Y27632, reference compound]
[1]
  amount in the culture medium, most preferably: 10 µM
[2]
  effect on cell proliferation (ratio of number of cells to that in basic medium BM): certain promoting effects on cell proliferation in specific concentration ranges

## CN1C(=O)C(c2c(F)cccc2F)N(C)c2nc(Nc3ccc(S(N)(=O)=O)cc3)ncc21 (stereo not shown) [Compound 1, 4-((7-(2,6-Difluorophenyl)-5,8-dimethyl-6-oxo-5,6,7,8-tetrahydropteridin-2-yl)amino)benzsulfamide]
[1]
  amount in the culture medium, most preferably: 5 µM
[2]
  effect on cell proliferation (ratio of number of cells to that in basic medium BM): certain promoting effects on cell proliferation in specific concentration ranges
[3]
  expression of YAP and TAZ proteins in the nucleus: significant increase

## gastrin: additive factor from Sino Biological Inc. (QGPWLEEEEEAYGWMDF; ends and bridges not checked; UniProt P01350 76-92, looked up)
[1]
  amount in the culture medium, most preferably: 10 ng/mL
[2]
  effect on cell proliferation (ratio of number of cells to that in basic medium BM): certain promoting effects on cell proliferation in specific concentration ranges

## Cc1cccc(-c2nn(C(=S)Nc3ccccc3)cc2-c2ccnc3ccccc23)n1 [Compound A83-01, reference compound]
[1]
  amount in the culture medium, most preferably: 0.5 µM
[2]
  effect on cell proliferation (ratio of number of cells to that in basic medium BM): certain promoting effects on cell proliferation in specific concentration ranges

## transferrin: additive factor from Sino Biological Inc.
[1]
  amount in the culture medium, most preferably: 20 ng/mL
[2]
  effect on cell proliferation (ratio of number of cells to that in basic medium BM): certain promoting effects on cell proliferation in specific concentration ranges
